Laboratory results from publication PMC3938834, “De Novo Peptide Design and Experimental Validation of Histone Methyltransferase Inhibitors” (PLoS ONE, 2014).
Where two headings read alike, the source gives them in different places. No end group written: not given here.

Legend:
EZH2 = settings: small molecule inhibitor quoted for reference; cited from earlier work
Description: (§1) To quantitatively measure the inhibition properties of the designed sequences, peptide dose titrations were performed. The concentration of peptide required to suppress 50% of the enzymatic activity (i.e. half-maximal inhibitory concentration, ) and the Hill coefficient (measure of cooperativity of binding) were calculated (Table 2).

[1] = biological target: T1, EZH2 (reconstituted recombinant PRC2 containing full length EZH2, SUZ12, EED, RBAP46/48) (Homo sapiens, UniProt Q15910); assay: radiometric EZH2 HMT enzymatic assay, 384-well Flashplate, 10-point dose titrations; assay type: biochemical
T1 construct: reconstituted recombinant PRC2 (containing full length EZH2, SUZ12, EED, RBAP46/48)
Description: Experiments were performed using radiometric EZH2 enzymatic assays prepared individually or in a semi-automated fashion on a 384-well platform. For the experiments shown in Figures 3.A, 3.C, and 3.D, 4 [drawing 50] g of oligonucleosomes was used per reaction. For the experiments shown in Figures 3.C–D, 3 [drawing 51] g of PRC2 complex were added. For all other HMT assays (Figure 4, Figure 5, and Table 2) the following balanced conditions (at Km for cofactor and substrate) were used. […] The putative peptide inhibitors were tested in single point assays and in 10-point dose titrations. The total volume of the reaction mixture was 30 [drawing 55] L. Reactions were incubated for 1 hour at [drawing 56] C. Reactions terminated by the addition of 10 [drawing 57] L, 5× Laemmli Sample Buffer were loaded onto 15% Tri-Glycine-Polyacrylamide gels and resolved by PAGE. Resolved proteins were transferred to PVDF membrane at 65 V for 2 hours. Membranes were stained with CBB, destained, dried, and exposed to imaging plates for 24 hours. Images were detected using an FLA-7000 bioimaging system (Fujifilm). Reactions terminated by the addition of SAH to a final concentration of 850 [drawing 58] M were transferred to a 384-well Flashplate (Perkin Elmer) and incubated for 90 min. Liquids were aspirated and wells washed with 1×60 [drawing 59] L of wash buffer (50 mM Tris, pH 8.5, 200 mM NaCl, 0.01% NP-40). Detection of incorporated radioactivity in Flashplates was carried out using a Topcount instrument (Perkin Elmer). Potential inhibitory peptides were tested in single point assays and in 10-point dose titrations. Mechanism of Action Enzymatic Assays were performed under the same conditions and using the same protocol. However, in the Mechanism of Action Enzymatic assays the assays were performed with varied enzyme, substrate, or cofactor concentration to identify the mechanism of inhibition.
In order to assess the inhibitory capability of the candidate peptides experimentally, HMT enzymatic assays were conducted. These HMT assays assessed the EZH2-dependent transfer of tritiated methyl-groups from the methyl-donor SAM to reconstituted oligonucleosomes (see Methods for details).
as §1, with “concentration, [drawing 76]” for “concentration,”
Understanding the mechanism of action allows us to determine whether the competitive inhibition targeted by the design framework and the input biological constraints has been successful.

T1 sequence (Q15910 whole entry): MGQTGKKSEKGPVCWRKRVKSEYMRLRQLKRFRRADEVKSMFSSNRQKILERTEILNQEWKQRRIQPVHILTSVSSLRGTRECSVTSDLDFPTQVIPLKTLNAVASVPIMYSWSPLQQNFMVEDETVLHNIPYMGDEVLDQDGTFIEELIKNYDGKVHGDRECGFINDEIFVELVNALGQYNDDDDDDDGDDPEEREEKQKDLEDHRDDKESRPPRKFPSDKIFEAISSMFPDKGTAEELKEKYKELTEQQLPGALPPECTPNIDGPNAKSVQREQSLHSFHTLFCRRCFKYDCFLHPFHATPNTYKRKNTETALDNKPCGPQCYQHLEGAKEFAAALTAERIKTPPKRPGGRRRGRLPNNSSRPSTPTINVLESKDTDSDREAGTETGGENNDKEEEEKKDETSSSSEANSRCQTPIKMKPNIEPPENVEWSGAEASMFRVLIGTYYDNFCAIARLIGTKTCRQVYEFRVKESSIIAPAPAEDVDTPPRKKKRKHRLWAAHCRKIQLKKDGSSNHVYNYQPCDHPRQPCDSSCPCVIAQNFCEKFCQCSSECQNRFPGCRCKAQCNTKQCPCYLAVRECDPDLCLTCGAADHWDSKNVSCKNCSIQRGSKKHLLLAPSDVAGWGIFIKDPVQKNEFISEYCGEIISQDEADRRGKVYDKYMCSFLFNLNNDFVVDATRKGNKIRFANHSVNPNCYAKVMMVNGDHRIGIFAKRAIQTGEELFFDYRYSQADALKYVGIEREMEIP
T1 sequence (Q15022 whole entry partner): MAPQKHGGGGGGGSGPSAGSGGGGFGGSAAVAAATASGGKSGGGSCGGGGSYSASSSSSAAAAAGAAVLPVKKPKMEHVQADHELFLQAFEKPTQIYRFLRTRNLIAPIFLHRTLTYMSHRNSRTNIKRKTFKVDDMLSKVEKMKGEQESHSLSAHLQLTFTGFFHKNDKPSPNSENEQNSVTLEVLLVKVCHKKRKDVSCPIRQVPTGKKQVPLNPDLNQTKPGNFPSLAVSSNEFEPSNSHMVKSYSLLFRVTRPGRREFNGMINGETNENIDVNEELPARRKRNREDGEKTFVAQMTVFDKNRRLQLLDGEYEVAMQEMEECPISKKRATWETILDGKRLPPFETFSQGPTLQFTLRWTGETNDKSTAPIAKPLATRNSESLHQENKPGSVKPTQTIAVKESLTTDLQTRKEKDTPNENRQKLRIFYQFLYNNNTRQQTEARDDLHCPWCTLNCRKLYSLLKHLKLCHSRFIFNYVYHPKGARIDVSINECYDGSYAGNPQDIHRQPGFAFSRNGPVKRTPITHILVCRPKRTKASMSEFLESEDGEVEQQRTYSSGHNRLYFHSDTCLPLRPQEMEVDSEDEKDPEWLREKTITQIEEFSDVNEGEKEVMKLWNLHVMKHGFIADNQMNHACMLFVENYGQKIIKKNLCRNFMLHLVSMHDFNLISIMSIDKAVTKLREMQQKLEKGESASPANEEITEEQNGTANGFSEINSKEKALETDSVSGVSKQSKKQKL
T1 sequence (O75530 whole entry partner): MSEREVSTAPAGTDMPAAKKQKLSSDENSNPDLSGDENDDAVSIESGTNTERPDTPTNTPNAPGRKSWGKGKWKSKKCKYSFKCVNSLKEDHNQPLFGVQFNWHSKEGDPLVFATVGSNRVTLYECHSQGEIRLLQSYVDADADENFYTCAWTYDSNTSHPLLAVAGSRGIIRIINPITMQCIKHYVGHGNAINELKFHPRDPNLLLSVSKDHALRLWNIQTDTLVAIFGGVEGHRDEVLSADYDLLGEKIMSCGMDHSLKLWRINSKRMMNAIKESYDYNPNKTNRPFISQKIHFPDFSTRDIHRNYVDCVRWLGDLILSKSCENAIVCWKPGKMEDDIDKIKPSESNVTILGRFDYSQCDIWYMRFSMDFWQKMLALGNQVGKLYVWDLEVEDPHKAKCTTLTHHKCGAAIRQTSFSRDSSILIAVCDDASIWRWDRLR
T1 sequence (Q09028 whole entry partner): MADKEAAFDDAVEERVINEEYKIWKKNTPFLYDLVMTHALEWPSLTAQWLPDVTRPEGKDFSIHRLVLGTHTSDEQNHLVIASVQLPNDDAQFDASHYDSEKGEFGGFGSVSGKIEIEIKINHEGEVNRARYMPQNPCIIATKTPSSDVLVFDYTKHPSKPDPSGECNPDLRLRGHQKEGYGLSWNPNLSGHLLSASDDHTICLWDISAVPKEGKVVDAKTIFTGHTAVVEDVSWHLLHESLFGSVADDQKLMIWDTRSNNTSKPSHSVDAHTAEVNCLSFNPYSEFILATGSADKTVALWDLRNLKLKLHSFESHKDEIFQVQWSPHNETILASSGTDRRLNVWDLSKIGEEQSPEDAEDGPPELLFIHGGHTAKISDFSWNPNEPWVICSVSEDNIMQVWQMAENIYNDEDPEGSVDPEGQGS

Molecule | IC50 ([1]; read-out: IC50) | also measured
CCC(CC)n1ccc2c(C(=O)NCc3c(C)cc(C)[nH]c3=O)cc(C#N)cc21 [EI1] |  | IC50 (EZH2): ~0.015 µM
GKAPRKQLANRKWWKNYPRDG [SQ040] | 41 ± 1.19 µM | 
GKAPRKQLAPKAATKNARATS [SQ026] | 19.6 ± 1.12 µM | 
GKAPRKQLARKNWWKNYPRDG [SQ043] | 39.7 ± 1.17 µM | 
GKAPRKQLARRKWWFNYPQNG [SQ037] | 13.6 ± 1.24 µM | IC50 ([1]; Figure 5, high throughput radiometric assay, SQ037 versus native and mutated peptides, value printed in the picture without unit, read-out: IC50): 8.05 µM
GKAPRKQLASAKKAAATPRTG [SQ010] | 54.9 ± 1.26 µM | 
GKAPRKQLASKAARAATPKTG [SQ020] |  | IC50 [1]: 34.2 ± 1.46 µM
